According to ChEMBL document CHEMBL3991601, “The target landscape of clinical kinase drugs” (Science, 2017):
Activity calls are given as the source filed them. Rule as the data show it, for most assays here: actives have a measured Kd and inactives only a lower limit.

How the values were obtained:
[1] = molecular target: T1, Calcium/calmodulin-dependent protein kinase type IV (Homo sapiens, UniProt Q16566)
T1 sequence (Q16566 whole entry): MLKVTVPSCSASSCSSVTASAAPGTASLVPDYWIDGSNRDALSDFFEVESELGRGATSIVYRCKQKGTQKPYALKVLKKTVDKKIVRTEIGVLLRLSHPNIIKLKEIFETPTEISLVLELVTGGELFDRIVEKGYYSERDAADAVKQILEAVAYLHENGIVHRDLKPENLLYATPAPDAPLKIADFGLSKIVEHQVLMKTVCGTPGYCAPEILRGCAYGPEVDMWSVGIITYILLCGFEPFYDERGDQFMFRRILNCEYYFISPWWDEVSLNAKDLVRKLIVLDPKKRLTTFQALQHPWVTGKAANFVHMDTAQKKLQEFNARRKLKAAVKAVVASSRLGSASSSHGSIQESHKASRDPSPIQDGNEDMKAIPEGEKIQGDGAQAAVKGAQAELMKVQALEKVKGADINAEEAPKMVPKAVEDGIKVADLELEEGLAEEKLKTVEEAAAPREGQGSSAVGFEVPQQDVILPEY

[2] = molecular target: T2, Ferrochelatase, mitochondrial (Homo sapiens, UniProt P22830)
T2 sequence (P22830 whole entry): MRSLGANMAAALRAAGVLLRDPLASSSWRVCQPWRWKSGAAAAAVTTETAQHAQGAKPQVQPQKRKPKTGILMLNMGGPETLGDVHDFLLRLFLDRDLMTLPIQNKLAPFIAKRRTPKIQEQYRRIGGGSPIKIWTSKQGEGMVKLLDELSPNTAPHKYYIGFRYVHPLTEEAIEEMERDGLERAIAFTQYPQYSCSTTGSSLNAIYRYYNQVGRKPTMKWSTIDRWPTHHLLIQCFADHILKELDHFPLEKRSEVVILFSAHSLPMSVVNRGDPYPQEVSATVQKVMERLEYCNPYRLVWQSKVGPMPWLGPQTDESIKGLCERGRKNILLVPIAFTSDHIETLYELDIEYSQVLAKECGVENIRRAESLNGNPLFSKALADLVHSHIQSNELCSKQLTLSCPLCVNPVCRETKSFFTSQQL

[3] = molecular target: Casein kinase I isoform alpha (Homo sapiens, UniProt P48729)
DNA topoisomerase 2-beta = DNA topoisomerase 2-beta (Homo sapiens, UniProt Q02880)
[4] = molecular target: T3, Breakpoint cluster region protein (Homo sapiens, UniProt P11274)
T3 sequence (P11274 whole entry): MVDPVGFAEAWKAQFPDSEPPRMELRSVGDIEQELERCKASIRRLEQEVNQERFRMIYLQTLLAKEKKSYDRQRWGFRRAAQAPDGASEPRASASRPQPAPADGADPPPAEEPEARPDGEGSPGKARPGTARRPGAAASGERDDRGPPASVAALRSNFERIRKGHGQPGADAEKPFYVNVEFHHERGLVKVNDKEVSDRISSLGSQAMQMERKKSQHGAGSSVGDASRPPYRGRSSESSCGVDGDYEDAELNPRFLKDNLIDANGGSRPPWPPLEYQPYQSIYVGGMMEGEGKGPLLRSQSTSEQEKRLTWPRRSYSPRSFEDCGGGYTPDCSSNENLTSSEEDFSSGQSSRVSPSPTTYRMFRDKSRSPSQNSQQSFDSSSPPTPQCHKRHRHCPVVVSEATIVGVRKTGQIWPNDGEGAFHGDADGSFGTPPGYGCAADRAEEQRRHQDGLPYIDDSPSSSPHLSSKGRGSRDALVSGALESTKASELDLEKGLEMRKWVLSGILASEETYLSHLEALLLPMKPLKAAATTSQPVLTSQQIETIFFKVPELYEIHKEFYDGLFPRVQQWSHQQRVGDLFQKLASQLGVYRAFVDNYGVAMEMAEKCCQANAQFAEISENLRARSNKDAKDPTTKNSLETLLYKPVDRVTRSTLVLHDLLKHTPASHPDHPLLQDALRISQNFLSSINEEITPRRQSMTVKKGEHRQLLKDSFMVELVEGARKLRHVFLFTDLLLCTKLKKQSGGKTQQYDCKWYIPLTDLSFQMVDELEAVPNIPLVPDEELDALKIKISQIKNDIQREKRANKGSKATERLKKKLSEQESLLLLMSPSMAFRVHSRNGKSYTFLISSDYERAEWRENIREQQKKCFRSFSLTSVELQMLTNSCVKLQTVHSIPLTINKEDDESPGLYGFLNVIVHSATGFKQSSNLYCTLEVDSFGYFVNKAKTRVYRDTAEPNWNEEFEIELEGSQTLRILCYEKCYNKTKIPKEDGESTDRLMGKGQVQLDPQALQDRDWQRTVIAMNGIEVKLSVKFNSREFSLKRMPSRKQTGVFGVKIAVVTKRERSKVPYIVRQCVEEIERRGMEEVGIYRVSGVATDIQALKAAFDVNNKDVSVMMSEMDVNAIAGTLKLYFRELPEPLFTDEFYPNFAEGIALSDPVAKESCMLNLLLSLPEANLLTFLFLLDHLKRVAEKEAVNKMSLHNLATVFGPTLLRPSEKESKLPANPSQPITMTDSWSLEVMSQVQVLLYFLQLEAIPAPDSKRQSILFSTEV

[5] = molecular target: T4, Acyl-CoA dehydrogenase family member 11 (Homo sapiens, UniProt Q709F0)
T4 sequence (Q709F0 whole entry): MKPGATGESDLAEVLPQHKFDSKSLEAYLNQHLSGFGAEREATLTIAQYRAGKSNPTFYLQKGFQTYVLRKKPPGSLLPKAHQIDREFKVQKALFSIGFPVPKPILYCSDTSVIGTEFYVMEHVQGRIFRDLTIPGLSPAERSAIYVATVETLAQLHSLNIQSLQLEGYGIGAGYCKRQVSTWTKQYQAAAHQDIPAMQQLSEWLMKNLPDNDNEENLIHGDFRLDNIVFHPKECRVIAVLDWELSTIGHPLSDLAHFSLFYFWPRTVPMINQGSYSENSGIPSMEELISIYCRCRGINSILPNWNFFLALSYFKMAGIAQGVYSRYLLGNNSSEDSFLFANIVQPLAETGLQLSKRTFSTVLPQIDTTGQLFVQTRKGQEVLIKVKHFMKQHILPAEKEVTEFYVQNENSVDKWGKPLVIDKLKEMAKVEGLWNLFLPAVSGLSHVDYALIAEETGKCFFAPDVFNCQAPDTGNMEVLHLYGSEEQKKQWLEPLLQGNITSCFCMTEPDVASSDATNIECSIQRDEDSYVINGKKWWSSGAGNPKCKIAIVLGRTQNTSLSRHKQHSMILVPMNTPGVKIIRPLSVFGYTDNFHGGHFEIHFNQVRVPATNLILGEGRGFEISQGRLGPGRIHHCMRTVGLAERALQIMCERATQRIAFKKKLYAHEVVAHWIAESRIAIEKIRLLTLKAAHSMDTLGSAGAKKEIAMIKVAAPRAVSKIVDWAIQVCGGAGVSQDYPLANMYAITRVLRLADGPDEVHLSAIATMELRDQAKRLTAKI
Also: in the data inactive means no Kd found up to 30 µM.

Casein kinase I isoform alpha, sequence (P48729 whole entry, canonical isoform): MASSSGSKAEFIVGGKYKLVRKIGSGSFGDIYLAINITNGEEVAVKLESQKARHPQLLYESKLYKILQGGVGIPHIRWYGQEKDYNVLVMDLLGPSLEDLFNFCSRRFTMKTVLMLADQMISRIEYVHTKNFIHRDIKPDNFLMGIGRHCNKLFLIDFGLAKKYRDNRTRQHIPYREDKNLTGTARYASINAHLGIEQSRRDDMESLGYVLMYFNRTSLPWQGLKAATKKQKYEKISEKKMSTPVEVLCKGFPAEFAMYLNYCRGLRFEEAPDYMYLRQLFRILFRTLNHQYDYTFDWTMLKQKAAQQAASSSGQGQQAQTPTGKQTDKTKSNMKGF
DNA topoisomerase 2-beta, sequence (Q02880 whole entry): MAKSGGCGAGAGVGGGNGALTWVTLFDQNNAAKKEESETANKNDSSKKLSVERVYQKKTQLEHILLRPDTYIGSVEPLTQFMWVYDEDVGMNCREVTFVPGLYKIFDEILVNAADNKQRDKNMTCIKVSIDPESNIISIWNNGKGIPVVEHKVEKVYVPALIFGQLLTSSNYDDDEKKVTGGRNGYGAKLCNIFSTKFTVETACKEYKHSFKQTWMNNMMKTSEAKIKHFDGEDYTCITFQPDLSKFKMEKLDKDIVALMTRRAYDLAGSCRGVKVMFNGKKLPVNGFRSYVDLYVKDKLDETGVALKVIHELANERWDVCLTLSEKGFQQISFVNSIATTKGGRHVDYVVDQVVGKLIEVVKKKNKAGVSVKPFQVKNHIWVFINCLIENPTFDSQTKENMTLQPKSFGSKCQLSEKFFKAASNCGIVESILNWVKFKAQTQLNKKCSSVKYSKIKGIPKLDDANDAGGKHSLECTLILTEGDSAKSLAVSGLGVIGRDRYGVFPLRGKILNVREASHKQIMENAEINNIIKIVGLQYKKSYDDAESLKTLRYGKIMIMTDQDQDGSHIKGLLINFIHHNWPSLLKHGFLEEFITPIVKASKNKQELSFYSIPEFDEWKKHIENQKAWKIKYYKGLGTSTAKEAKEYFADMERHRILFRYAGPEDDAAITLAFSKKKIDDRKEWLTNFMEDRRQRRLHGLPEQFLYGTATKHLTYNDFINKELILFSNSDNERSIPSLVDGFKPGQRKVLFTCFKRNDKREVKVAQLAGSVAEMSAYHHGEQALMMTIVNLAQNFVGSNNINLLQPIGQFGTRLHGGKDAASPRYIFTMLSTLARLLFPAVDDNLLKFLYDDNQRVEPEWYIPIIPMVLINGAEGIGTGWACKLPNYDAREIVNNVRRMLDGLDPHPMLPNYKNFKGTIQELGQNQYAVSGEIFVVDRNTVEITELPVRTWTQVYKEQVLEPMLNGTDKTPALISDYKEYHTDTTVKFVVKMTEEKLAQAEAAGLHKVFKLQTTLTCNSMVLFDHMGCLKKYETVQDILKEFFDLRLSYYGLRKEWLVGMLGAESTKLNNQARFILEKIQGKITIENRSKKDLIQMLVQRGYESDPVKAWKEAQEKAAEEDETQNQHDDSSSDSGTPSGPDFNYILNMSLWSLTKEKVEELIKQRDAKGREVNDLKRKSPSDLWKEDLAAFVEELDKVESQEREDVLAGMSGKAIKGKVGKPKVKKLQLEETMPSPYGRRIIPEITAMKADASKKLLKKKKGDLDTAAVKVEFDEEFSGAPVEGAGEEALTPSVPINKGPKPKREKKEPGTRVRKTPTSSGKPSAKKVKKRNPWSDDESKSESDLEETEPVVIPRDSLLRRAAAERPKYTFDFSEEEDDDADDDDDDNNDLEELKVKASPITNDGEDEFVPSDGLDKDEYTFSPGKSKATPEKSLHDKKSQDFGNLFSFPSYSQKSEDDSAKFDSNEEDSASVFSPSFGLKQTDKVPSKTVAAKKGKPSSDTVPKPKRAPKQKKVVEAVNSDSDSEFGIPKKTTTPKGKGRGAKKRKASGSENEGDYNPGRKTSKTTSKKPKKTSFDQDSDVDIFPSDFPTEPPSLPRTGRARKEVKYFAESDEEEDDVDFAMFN

Kd [1] | Kd [2] | Kd [3] | Kd (DNA topoisomerase 2-beta) | Kd [4] | Kd [5] | Compound
> 30 µM (inactive) | > 30 µM (inactive) | > 30 µM (inactive) | > 30 µM (inactive) |  |  | Cn1ncc(Cl)c1-c1cc(C(=O)N[C@H](CN)Cc2cccc(F)c2)sc1Cl [AFURESERTIB]
> 30 µM (inactive) | > 30 µM (inactive) | 3.33 µM (active) | > 30 µM (inactive) | > 30 µM (inactive) | > 30 µM (inactive) | COC(=O)N[C@@H](C)CNc1nccc(-c2cn(C(C)C)nc2-c2cc(Cl)cc(NS(C)(=O)=O)c2F)n1 [ENCORAFENIB]
> 30 µM (inactive) | > 30 µM (inactive) |  | > 30 µM (inactive) | > 30 µM (inactive) | > 30 µM (inactive) | OCCn1cc(-c2cnc3nnn(Cc4ccc5ncccc5c4)c3n2)cn1 [PF-04217903]
> 30 µM (inactive) | > 30 µM (inactive) | > 30 µM (inactive) | > 30 µM (inactive) | > 30 µM (inactive) |  | O=c1sn(-c2cccc3ccccc23)c(=O)n1Cc1ccccc1 [TIDEGLUSIB]
> 30 µM (inactive) | > 30 µM (inactive) |  | > 30 µM (inactive) | > 30 µM (inactive) | > 30 µM (inactive) | CCc1cnn2c(NCc3ccc[n+]([O-])c3)cc(N3CCCC[C@H]3CCO)nc12 [DINACICLIB]
> 30 µM (inactive) | 67.9 µM (active) | > 30 µM (inactive) | > 30 µM (inactive) | > 30 µM (inactive) |  | C1=C/COCc2cc(ccc2OCCN2CCCC2)Nc2nccc(n2)-c2cccc(c2)COC/1 [PACRITINIB]
> 30 µM (inactive) | > 30 µM (inactive) | > 30 µM (inactive) | > 30 µM (inactive) | > 30 µM (inactive) |  | COc1cc(N2CCC(N3CCN(C)CC3)CC2)ccc1Nc1ncnc(Nc2ccccc2S(=O)(=O)C(C)C)n1 [ASP-3026]
> 30 µM (inactive) | 0.783 µM (active) |  | > 30 µM (inactive) | 8.09 µM (active) | > 30 µM (inactive) | Cc1nc(N)sc1-c1ccnc(Nc2ccc(N3CCOCC3)cc2)n1 [CYC-116]
 | > 30 µM (inactive) |  | > 30 µM (inactive) | 17.4 µM (active) | > 30 µM (inactive) | CN1CCN(c2ccc3nc(-c4c(N)c5c(F)cccc5[nH]c4=O)[nH]c3c2)CC1 [DOVITINIB]
 | > 30 µM (inactive) | > 30 µM (inactive) | > 30 µM (inactive) | > 30 µM (inactive) | > 30 µM (inactive) | N[C@@H]1CCCN(c2c(/C=C3\SC(=O)NC3=O)cccc2-c2ccccc2)C1
> 30 µM (inactive) | > 30 µM (inactive) |  | > 30 µM (inactive) | > 30 µM (inactive) | > 30 µM (inactive) | Cc1cc(Nc2cc(N3CCN(C)CC3)nc(/C=C/c3ccccc3)n2)n[nH]1 [ENMD-2076]
 | > 30 µM (inactive) |  | > 30 µM (inactive) | > 30 µM (inactive) | > 30 µM (inactive) | Nc1nc(N)c2nc(-c3cccc(O)c3)c(-c3cccc(O)c3)nc2n1 [TG100-115]
> 30 µM (inactive) | > 30 µM (inactive) |  | > 30 µM (inactive) | 0.015 µM (active) | > 30 µM (inactive) | Cc1ccc(NC(=O)c2ccc(CN3CC[C@H](N(C)C)C3)c(C(F)(F)F)c2)cc1Nc1nccc(-c2cncnc2)n1 [BAFETINIB]
> 30 µM (inactive) | > 30 µM (inactive) | > 30 µM (inactive) | > 30 µM (inactive) | > 30 µM (inactive) |  | O=C(Nc1ccc(-c2ccnc(Nc3ccc(N4CCOCC4)cc3)n2)cc1)C1CCCN1 (configuration not stated) [XL-019]
 | 2.7 µM (active) |  | > 30 µM (inactive) | > 30 µM (inactive) |  | CCn1c(-c2nonc2N)nc2c(C#CC(C)(C)O)ncc(OC[C@H]3CCCNC3)c21 [GSK-690693]
 | > 30 µM (inactive) | > 30 µM (inactive) |  | > 30 µM (inactive) |  | C[C@@H](c1ccc2nccn2c1)n1nnc2ncc(-c3cnn(C)c3)nc21 [SAVOLITINIB]
> 30 µM (inactive) | 12.3 µM | > 30 µM (inactive) | > 30 µM (inactive) | > 30 µM (inactive) |  | CN(C)C(=O)c1cc2cnc(Nc3ccc(N4CCNCC4)cn3)nc2n1C1CCCC1 [RIBOCICLIB]

Compound | Kd [1] | Kd [2] | Kd [3] | Kd (DNA topoisomerase 2-beta) | Kd [4] | Kd [5]
Cc1cc(-c2cc(O)ccc2Cl)cc2nnc(Nc3ccc(OCCN4CCCC4)cc3)nc12 | > 30 µM (inactive) | > 30 µM (inactive) | > 30 µM (inactive) | > 30 µM (inactive) | 0.001 µM (active) | > 30 µM (inactive)
Cc1cn(-c2cc(NC(=O)c3ccc(C)c(Nc4nccc(-c5cccnc5)n4)c3)cc(C(F)(F)F)c2)cn1 [NILOTINIB] |  |  |  | > 30 µM (inactive) |  | > 30 µM (inactive)
C=CC(=O)N1CCC(Oc2cc3c(Nc4ccc(Cl)c(Cl)c4F)ncnc3cc2OC)CC1 [POZIOTINIB] | > 30 µM (inactive) | > 30 µM (inactive) | > 30 µM (inactive) | > 30 µM (inactive) | > 30 µM (inactive) | 
O=C(Nc1cccc(Cl)c1)Nc1ncc(CCNc2ncnc3ccsc23)s1 [SNS-314] | > 30 µM (inactive) | > 30 µM (inactive) |  | > 30 µM (inactive) | > 30 µM (inactive) | > 30 µM (inactive)
CN1CC[C@@H](c2c(O)cc(O)c3c(=O)cc(-c4ccccc4Cl)oc23)[C@@H]1CO | > 30 µM (inactive) | > 30 µM (inactive) | > 30 µM (inactive) | > 30 µM (inactive) | > 30 µM (inactive) | 
Cc1ccc(-n2nc(C(C)(C)C)cc2NC(=O)NCc2cc(F)ccc2Oc2ccc3c(cnn3CCO)c2)cc1 [PEXMETINIB] | > 30 µM (inactive) | > 30 µM (inactive) | > 30 µM (inactive) | > 30 µM (inactive) | 0.681 µM (active) | 
